Laboratory results as given in US20140094424A1, “MICROBICIDAL COMPOSITIONS AND METHODS OF PRODUCTION USE THEREOF” (priority 2011, published 2014).

Legend:
[1] = test system: Gram positive rods (S); experiment: MBC (minimum bactericidal concentration) test in Wash NEXT reagent; type: cell-based
Description: (§1) The stock organisms were thawed and subbed prior to beginning the MBC test. Molds were subbed to SDA plates one week before, and the bacteria were subbed to TAT agar plates 24 hours prior to the start of the test. All plates were incubated at 32 degrees C.
(§2) Each bacterial organism was inoculated into 40 ml sterile saline in a centrifuge tube to create a density of MacFarland #1. Two serial dilutions of 1:100 were then made, resulting in 10^−2 and 10^−4 concentrations. Each dilution was vortexed before it was sampled, and sterile Eppendorf pipette tips were used to make each transfer. The 10^−4 dilution was spiral plated to yield the initial inoculum concentration.
(§3) MBC trays were set up with the prepared test reagent. Using a Matrix pipettor, 100 μl aliquots of reagent were distributed into the wells, diluting the amount of preservative from 100% to 10% increments, using unpreserved reagent as the diluent. In one row, 100% non-preserved reagent acted as a positive control and served as a benchmark for a full mat of growth. In well #12H, 100 μl unpreserved reagent was pipetted, and this well was not inoculated with organisms, as it served as the negative control. Once all of the trays were prepared, the prepared bacteria/mold suspensions were poured into the MBC inoculating trays. These were placed onto the reagent trays, and 0.01 ml inoculum was introduced into the 100 μl of reagent in each well.
(§4) This was done by dipping a sterile cotton swab into each well, and absorbing all of the liquid in the well. The swab was rolled onto a TAT agar plate ensuring that the entire swab touches the agar. Plates ware incubated at 32 degrees C. for 48 hours to 7 days, depending on the organism. Observations for growth were performed by a scoring matrix using + for a full mat, +/− for some growth, a numerical value for an actual colony count, and—for no growth.
(§5) Below are tables that contain the data obtained in Example 1. The MBC test is scored by (+) indicating a full grown mat of organisms, equivalent to the organisms in the unpreserved reagent. (+/−) indicates there is some kill evident disturbing that mat or bringing the quantities down to an almost countable level. An actual number is the actual number of colonies growing at that concentration of preservative. (−) indicates no growth found. The MBC trays were stored at room temperature for the entire test.
(§6) The materials and methods and analysis of the MBC test were the same as in Example 1.

[2] = test system: Pseudomonas aeruginosa (AY); experiment: as above; type: cell-based
Description: as §1, §2, §3, §4, §5, §6

Measured: MBC test growth score

Cc1cc(NS(=O)(=O)c2ccc(N)cc2)no1 [Sulfamethoxazole, sulfamethoxazole]
+: [1]; 10% preservative, 8 hour | [1]; 10% preservative, 24 hour | [1]; 10% preservative, 48 hour | [1]; 10% preservative, 72 hour | [1]; 10% preservative, 7 day | [1]; 10% preservative, 14 day | [1]; 20% preservative, 8 hour | [1]; 20% preservative, 24 hour | [1]; 20% preservative, 48 hour | [1]; 20% preservative, 72 hour | [1]; 20% preservative, 7 day | [1]; 20% preservative, 14 day | [1]; 30% preservative, 8 hour | [1]; 30% preservative, 24 hour | [1]; 30% preservative, 48 hour | [1]; 30% preservative, 72 hour | [1]; 30% preservative, 7 day | [1]; 30% preservative, 14 day | [1]; 40% preservative, 8 hour | [1]; 40% preservative, 24 hour | [1]; 40% preservative, 48 hour | [1]; 40% preservative, 72 hour | [1]; 40% preservative, 7 day | [1]; 40% preservative, 14 day | [1]; 50% preservative, 8 hour | [1]; 50% preservative, 24 hour | [1]; 50% preservative, 48 hour | [1]; 50% preservative, 72 hour | [1]; 50% preservative, 7 day | [1]; 50% preservative, 14 day | [1]; 60% preservative, 8 hour | [1]; 60% preservative, 24 hour | [1]; 60% preservative, 48 hour | [1]; 60% preservative, 72 hour | [1]; 60% preservative, 7 day | [1]; 60% preservative, 14 day | [1]; 70% preservative, 8 hour | [1]; 70% preservative, 24 hour | [1]; 70% preservative, 48 hour | [1]; 70% preservative, 72 hour | [1]; 70% preservative, 7 day | [1]; 70% preservative, 14 day | [1]; 80% preservative, 8 hour | [1]; 80% preservative, 24 hour | [1]; 80% preservative, 48 hour | [1]; 80% preservative, 72 hour | [1]; 80% preservative, 7 day | [1]; 80% preservative, 14 day | [1]; 90% preservative, 8 hour | [1]; 90% preservative, 24 hour | [1]; 90% preservative, 48 hour | [1]; 90% preservative, 72 hour | [1]; 90% preservative, 7 day | [1]; 90% preservative, 14 day | [1]; 100% preservative, 8 hour | [1]; 100% preservative, 24 hour | [1]; 100% preservative, 48 hour | [1]; 100% preservative, 72 hour | [1]; 100% preservative, 7 day | [1]; 100% preservative, 14 day | [2]; 10% preservative, 8 hour | [2]; 10% preservative, 24 hour | [2]; 10% preservative, 48 hour | [2]; 10% preservative, 72 hour | [2]; 20% preservative, 8 hour | [2]; 20% preservative, 24 hour | [2]; 20% preservative, 48 hour | [2]; 20% preservative, 72 hour | [2]; 30% preservative, 8 hour | [2]; 30% preservative, 24 hour | [2]; 30% preservative, 48 hour | [2]; 30% preservative, 72 hour | [2]; 40% preservative, 8 hour | [2]; 40% preservative, 24 hour | [2]; 40% preservative, 48 hour | [2]; 40% preservative, 72 hour | [2]; 50% preservative, 8 hour | [2]; 50% preservative, 24 hour | [2]; 50% preservative, 48 hour | [2]; 50% preservative, 72 hour | [2]; 60% preservative, 8 hour | [2]; 60% preservative, 24 hour | [2]; 60% preservative, 48 hour | [2]; 60% preservative, 72 hour | [2]; 70% preservative, 8 hour | [2]; 70% preservative, 24 hour | [2]; 70% preservative, 48 hour | [2]; 70% preservative, 72 hour | [2]; 80% preservative, 8 hour | [2]; 80% preservative, 24 hour | [2]; 80% preservative, 48 hour | [2]; 80% preservative, 72 hour | [2]; 90% preservative, 8 hour | [2]; 90% preservative, 24 hour | [2]; 90% preservative, 48 hour | [2]; 90% preservative, 72 hour | [2]; 100% preservative, 8 hour | [2]; 100% preservative, 24 hour | [2]; 100% preservative, 48 hour | [2]; 100% preservative, 72 hour
